How the values were obtained:
[1] = target: Aldo-keto reductase family 1 member B1 (Homo sapiens) (UniProt P15121); experiment: Inhibition of aldose reductase at 0.1 uM
[2] = target: Aldo-keto reductase family 1 member B1 (Homo sapiens) (UniProt P15121); experiment: Inhibition of aldose reductase at 1 uM

Structure (SMILES) | inhibition [1] [%] | inhibition [2] [%]
O=C1NC(=O)c2cccc3cccc1c23 | 92 | 44
COc1cc2oc(-c3ccc(O)c(O)c3)c(OC)c(=O)c2c(O)c1OC | 88 | 63
C[C@@H]1O[C@@H](Oc2c(-c3ccc(O)c(O)c3)oc3cc(O)cc(O)c3c2=O)[C@H](O)[C@H](O)[C@H]1O | 91 | 82
COc1ccc(-c2oc3cc(O[C@@H]4O[C@H](CO)[C@@H](O)[C@H](O)[C@H]4O)c(OC)c(O)c3c(=O)c2OC)cc1O | 47 | 0

More lines, now with the values ahead:

inhibition [1] [%] | inhibition [2] [%] | Structure (SMILES)
97 | 71 | COc1cc2oc(-c3ccc(O)c(O)c3)c(OC)c(=O)c2c(O)c1O
64 | 21 | COc1cc2oc(-c3ccc(O)cc3)c(OC)c(=O)c2c(O)c1OC
95 | 78 | COc1c(-c2ccc(O)c(O)c2)oc2cc(O)cc(O)c2c1=O
